“And” between values parts separate entries of the source, which are not always exact repeats. Equal values may be shown once.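 Values below derive from 48-hour exposures of cells grown in 96-well plates, with endpoints linearly interpolated between the two concentrations bracketing the appropriate inhibition level. GI50 marks 50% less growth. TGI marks complete inhibition of growth.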

The experiment deals with MDA-MB-468 breast. Briefly: growth of human tumour cells (NCI), 48 h.
As to `N#C/C(=C\c1c(-c2ccccc2)[nH]c2ccccc12)S(=O)(=O)c1ccccc1`, the GI50 is 1860 nM and the TGI was > 28.3 µM.
The corresponding values for `CN(C)c1ccc2c(c1)Sc1cc(N(C)C)ccc1N2C(=O)c1ccccc1` are 44700 nM and > 100 µM.
Turning to `CCN(C(=O)N1CCN(c2cc3c(cc2F)c(=O)c(C(=O)O)cn3C2CC2)CC1)c1nc(-c2ccc(C)cc2)cs1`, the GI50 is 1130 nM and the TGI stood at 7.4 µM.
For `CN(C)CCCN1c2ccccc2CCc2ccc(Cl)cc21` the same measures were 1420 nM and 3.23 µM.
The corresponding values for `O=C(/C(=C/c1ccccc1)CN1CCCCC1)c1ccccc1` are 531 nM and 1.95 µM.
As for `CC(C)CC(CC1=CCC2CC1C2(C)C)C1=C(O)C(C)(C)C(=O)C(C)(C)C1=O` (centres undefined), the GI50 is 268 nM and the TGI came out at 1.33 µM.
Consider `C/C(=N\Nc1ccc2ccccc2n1)c1ccccn1`, for which the GI50 is 96.2 nM and the TGI was 0.705 µM.
The corresponding values for `O=C(C1CCCCC1)[C@@H]1[C@]2(C(=O)NC3CCCCC32)[C@@H]2CCCN2[C@@]12C(=O)NC1CCC(Cl)CC12` (some centres undefined) are 121000 nM and 277 µM.
`C[C@]12CC[C@H]3[C@@H](CCC4=CC(=O)CC[C@@H]43)[C@@H]1CC[C@@H]2OC(=O)CCc1ccccc1`: the GI50 was > 61400 nM and the TGI was > 100 µM.
The corresponding values for `COC(=O)C(Cc1ccccc1)NC(=O)NC(=O)NC(=O)CI` (centres undefined) are 4100 nM and 15.1 µM.
For `COc1cccc(NC(=O)c2sc3nc4c(cc3c2N)CN(Cc2ccccc2)CC4)c1` the same measures were 2600 nM and 61.4 µM.
For `CC(CN1CCN(CCOCCO)CC1)CN1c2ccccc2Sc2ccc(Cl)cc21` (centres undefined) the same measures were 1690 nM and 4.14 µM.
For the molecule `C=C1CC[C@@H]2[C@](C)(COC(C)=O)[C@@H](O)CC[C@@]2(C)[C@@H]1COc1ccc2ccc(=O)oc2c1`, the GI50 was > 100000 nM and the TGI was > 100 µM.
The corresponding values for `Cc1ccc(-c2cc(-c3ccc(C)cc3)nc(NCCNc3ccnc4cc(Cl)ccc34)n2)cc1` are 1440 nM and 3.06 µM.
The corresponding values for `CCCn1c(C)nc2c1C(=O)c1ccccc1C2=O` are 18700 nM and 56.7 µM.
For the molecule `C=CC(=O)N(C)[C@H]1C[C@H]2OC(C)(C1OC)n1c3ccccc3c3c4c(c5c6ccccc6n2c5c31)C(=O)NC4` (some centres undefined), the GI50 was 57.1 nM and the TGI was found to be 0.235 µM.
For `C[C@]12CCC3[C@@H](CC[C@@H]4c5nonc5CC[C@]34C)C1CCC(=O)N2` (some centres undefined) the same measures were 60200 nM and > 100 µM.
Turning to `Cc1ccc(C(=O)Nc2cccc(C(F)(F)F)c2)cc1Nc1nc(-c2cccnc2)nc2c1cnn2C`, the GI50 was 3020 nM and 1780 nM; the TGI was 8.4 µM and 4.48 µM.
On to `O=S(=O)(NCCNC/C=C/c1ccc(Br)cc1)c1cccc2cnccc12`, for which the GI50 was 3300 nM and 5060 nM; the TGI is 13.8 µM and 18.5 µM.
In the case of `CCC1C(c2cc(OC)c(OC)c(OC)c2)c2cc3c(cc2OC1N1CCCC1)OCO3` (centres undefined), the GI50 was 4230 nM and the TGI was determined as 25.2 µM.
The corresponding values for `Cc1cc2c3ccc(C)[n+](C)c3ccc2n1C` are 1120 nM and 8.5 µM.
For `CC(C)(C)c1ccc(OCCCCCCN2CCNCC2)cc1` the same measures were 2380 nM and 6.78 µM.
For `CN1CCN(Cc2ccc(NC(=O)c3cncc(C#Cc4cnc(N)c5ccncc45)c3)cc2C(F)(F)F)CC1` the same measures were 1260 nM and 8.24 µM.
As to `CCCn1cnc2c(c1=N)C(c1ccc(Cl)cc1)c1sc3c(C)cccc3c1O2` (centres undefined), the GI50 is 361 nM and the TGI came to 3.9 µM.
For the molecule `O=[N+]([O-])c1cccc(-c2nc3sccn3c2-c2ccnc(NCCCNS(=O)(=O)c3cccc(F)c3)n2)c1`, the GI50 was 829 nM and the TGI stood at 6.1 µM.
The corresponding values for `COc1ccc(C2CC(c3cc(OC)c(OC)c(OC)c3)=NN2C(C)=O)cc1OCC(=O)Nc1nc2ccc(C(F)(F)F)cc2s1` (centres undefined) are 6120 nM and 29.1 µM.
Take `Cc1ccc(C(=O)Nc2ccc(CN3CCN(C)CC3)c(C(F)(F)F)c2)cc1C#Cc1cnc2cccnn12`: the GI50 was 461 nM and 1500 nM; the TGI is 1.72 µM and 4.22 µM.
As for `O[C@H]1CO[C@H]2[C@@H]1OC[C@@H]2Oc1ccc(Nc2ccnc(Nc3ccc(O[C@H]4CO[C@H]5[C@@H]4OC[C@@H]5O)c(Cl)c3)n2)cc1Cl`, the GI50 was 1180 nM and the TGI amounted to 3.81 µM.
The corresponding values for `O=C1c2c(c3c4ccccc4[nH]c3c3ccc4ccccc4c23)C(=O)N1CCN1CCCCC1` are 380 nM and 2.49 µM.
The corresponding values for `C=CC(=O)Nc1cccc(C)c1Nc1cc(-c2cccnc2Cc2c(C)c(OC)cc(OC)c2C)ncn1` are 5850 nM and 24.7 µM.
In the case of `CCN=C1C=CC(=C(c2ccc(N)cc2)c2ccc(N(CC)CC)c(C)c2)C=C1`, the GI50 was 193 nM and the TGI is 0.718 µM.
As to `O=c1[nH]c2ccccc2nc1-c1c[nH]c2ccccc12`, the GI50 is > 100000 nM and the TGI is > 100 µM.
The corresponding values for `O=C(c1ccccc1)C(CN1CCOCC1)c1ccccc1` (centres undefined) are 382 nM and 1.59 µM.
For `Cc1cc(NCc2cc(Nc3ccnc4cc(Cl)ccc34)ccc2F)nc(N2CCCC2)n1` the same measures were 1330 nM and 3.07 µM.
For `Cn1c2c(cc(S(=O)(=O)c3ccccc3)c1=O)CCc1c-2cnn1-c1ccc(Cl)cc1` the same measures were 2390 nM and 5.65 µM.
As for `Clc1cc(Cl)c(OCC#CI)cc1Cl`, the GI50 is 2360 nM and the TGI was found to be 7.29 µM.
The corresponding values for `CN(C)c1ccc(/C=C\c2cccc[n+]2C)cc1` are 988 nM and 5.76 µM.
Consider `C=CC(=O)N1CCN(c2ccc3cccc(NC(=O)c4cnc(C)cn4)c3n2)CC1`, for which the GI50 was 1830 nM and the TGI was 7.45 µM.
On to `CS(=O)(=O)c1ccc(C(=O)Nc2ccc(Cl)c(-c3ccccn3)c2)c(Cl)c1`, for which the GI50 was 20800 nM and 2160 nM; the TGI was > 86 µM and 9.69 µM.
`CCN1CCC(CCOC)(CN2c3ccccc3Sc3ccc(Cl)cc32)C1` (centres undefined): the GI50 was 1660 nM and the TGI is 3.37 µM.
The corresponding values for `Cc1cc(N/N=C/c2nc(-c3ccc(Br)cc3)oc2C)c2cc(Cl)ccc2n1` are > 100000 nM and > 100 µM.
Consider `Nc1ncnc2[nH]ncc12`, for which the GI50 was 219 nM and the TGI is 2.85 µM.
For `COc1ccc(-c2n[nH]nc2-c2cc(OC)c3c(c2OC)OCO3)cc1` the same measures were 386 nM and 1.49 µM.
For `Cc1ccc(NC(=O)/C=C/c2ccccc2)c(C(N)=O)c1` the same measures were 3170 nM and 28.1 µM.
The corresponding values for `COc1ccc(-c2cc(-c3ccccc3)nc(SCCCC(=O)NO)n2)cc1` are 1140 nM and 4.52 µM.
With `CC1=C(CCC(C)N(C)Cc2ccc(OCCCN3CCCC3)cc2)C(C)(C)CCC1` (centres undefined), the GI50 is 2150 nM and the TGI came to 5.75 µM.
Take `N/C(=N\N=C\c1ccc(-c2ccccc2)cc1)N[N+](=O)[O-]`: the GI50 was 935 nM and the TGI was > 100 µM.

(Values after PubChem BioAssay (NCI).)
